Data published in the METLIN SMRT retention time set (Domingo-Almenara et al. 2019).

Assay: gradient 5% acetonitrile 3 min, to 50% in 2 min, to 85% in 15 min, held 3 min, 100 µL/min
Conditions: column: Zorbax Extend-C18 2.1 x 50 mm; eluents: water / acetonitrile, 0.1% formic acid
Outline: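 Retention times of pure standards were taken from adduct peaks that were selected by computer and manually inspected. Over 3 months, mixtures of ~100 molecules were run by HPLC–quadrupole time-of-flight mass spectrometry in positive and negative ionization mode. The Zorbax Extend-C18 column (2.1 × 50 mm, 1.8 μm) ran at 100 μL/min in water and acetonitrile, each containing 0.1% formic acid, with 40 μL dead volume and 900 μL dwell volume.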

Row | Compound | RP-LC retention time [s]
1 | Cc1ccc(NC(=O)Cn2cc(C(=O)N3CCCC3)c(=O)c3ccc(C)nc32)cc1 | 713
2 | O=C(C1CCN(c2nc3cccnc3s2)CC1)N1CCN(c2ccccn2)CC1 | 590
3 | CC1CCCN(S(=O)(=O)c2ccc(-n3cnc(C(=O)N4CCCCC4)c3)nc2)C1 (stereo not drawn) | 881
4 | Cc1cccc(NC(=O)C2CCc3sc(C(=O)N(C)C)cc3C2)c1 (stereo not drawn) | 846
5 | O=C(NCc1ccco1)c1c(O)c2cccnc2n(-c2cccc(F)c2)c1=O | 1070
6 | Cc1ccc(CSc2nccc3c2ccn3CC(=O)NCc2ccco2)cc1 | 729
7 | O=C(Cc1csc(NC(=O)C2CCCC2)n1)NC1CCN(Cc2ccccc2)CC1 | 569
8 | O=C(O)C1CCc2sc(C(=O)N3CCCCCC3)cc2C1 (stereo not drawn) | 746
9 | Cc1ccc(NC(=O)c2cc3c(s2)CN(C2CCCC2)C3)c(C)c1 | 663
10 | Cc1ccc(S(=O)(=O)c2cnc(N3CCC4(CC3)OCCO4)nc2N)cc1 | 858
11 | Cc1ccccc1NC(=O)N1CCC(c2nc(C(=O)N3CCOCC3)c(C)o2)CC1 | 673
12 | CC(C)(C)OC(=O)Cn1nc2ccc(S(=O)(=O)N3CCSCC3)cn2c1=O | 888
13 | O=C(CN1C(=O)COc2ccc(S(=O)(=O)N3CCOCC3)cc21)NCCc1c[nH]c2ccccc12 | 777
14 | Cc1sc(-c2nc(C(C)C)cs2)cc1S(=O)(=O)N1CCN(c2ccccc2)CC1 | 1420
15 | Cc1cc(=O)n(CC(=O)Nc2ccccc2F)c(N2CCCC2)n1 | 616
16 | OCCn1cc(-c2cnc3nnn(Cc4ccc5ncccc5c4)c3n2)cn1 | 620
17 | COc1ccc2c(c1)C1(CCN(S(=O)(=O)c3cc(F)ccc3C)C1)C(=O)N2C (stereo not drawn) | 997
18 | COc1ccccc1CNC(=O)CSc1cc(N2CCN(c3ccccc3OC)CC2)ncn1 | 888
19 | O=C(C1CCN(c2nn3c(=O)c4c(nc3s2)CCCC4)CC1)N1CCN(c2ncccn2)CC1 | 672
20 | CCOC(=O)c1ccc2nc(C(F)(F)F)nc(NCCCc3ccccc3)c2c1 | 1300

Row | Compound | RP-LC retention time [s]
21 | COc1ccc(CN2CC3(CCN(S(=O)(=O)c4cc(F)ccc4F)CC3)C2=O)cc1 | 924
22 | N#Cc1ccc(-c2nc(-c3ccc4c(c3)ncn4CCN3CCOCC3)no2)cc1 | 624
23 | COc1ccc(C2=NCC(=O)N(CC(=O)Nc3cc(F)ccc3F)c3sccc32)cc1 | 702
24 | O=C(Nc1ccc(C(F)(F)F)cc1)N1CC(n2cnnc2-c2ccccc2)C1 | 784
25 | CC(C)c1ccc(S(=O)(=O)c2ccc(=O)n(CC(=O)N3CCN(c4ccc(F)cc4)CC3)n2)cc1 | 1000
26 | O=C(Cc1nc(-c2ccccc2)n[nH]1)Nc1cccc(Cl)c1 | 800
27 | O=C(NCc1cccc(C(F)(F)F)c1)c1cn2nc(Cl)ccc2n1 | 908
28 | Cc1ccc(S(=O)(=O)N2CC(c3nc(C)no3)C3(CCOCC3)C2)cc1 (stereo not drawn) | 845
29 | CN1CCCc2cc(C(CNC(=O)C(=O)Nc3ccc4c(c3)OCO4)N3CCCC3)ccc21 (stereo not drawn) | 714
30 | CCC(=O)N1CC(n2cc(C(=O)NCC3CC3)nn2)C1 | 617
31 | CCCN(C)CC1(O)CCC2(CCN(C(=O)c3ccc(Cl)s3)CC2)CC1 | 647
32 | CN1c2ccc(Cl)cc2C(=O)NC12CCN(C(=O)NC1CCCCC1)CC2 | 818
33 | COc1ccc(C2CN(S(=O)(=O)c3cccc(C#N)c3)CCN2C)cc1 (stereo not drawn) | 550
34 | COCCNC(=O)CN1c2ccccc2NC2=C(C(=O)CC(C)(C)C2)C1c1ccccc1OC (stereo not drawn) | 756
35 | CC(C)N1C(=O)c2cccnc2Sc2cc(NC(=O)c3c(F)cccc3Cl)ccc21 | 973
36 | O=C(Nc1ccc2c(c1)OCCO2)N1CCC(Cc2nc(-c3ccncc3)n[nH]2)C1 (stereo not drawn) | 580
37 | O=C(c1ccc(CS(=O)(=O)c2c(Cl)cccc2Cl)o1)N1CCN(c2ccccn2)CC1 | 634
38 | COc1cc([C@@H]2c3cc4c(cc3[C@H](O)[C@@H](CO)[C@@H]2C(=O)Nc2ccc(C)cc2)OCO4)cc(OC)c1OC | 763
39 | CCSC1=NCCN1C(=O)c1ccc(C(F)(F)F)cc1 | 679
40 | CN1C(=O)C(CC(=O)N2CCCCC2)Sc2ncccc21 (stereo not drawn) | 658

Row | Compound | RP-LC retention time [s]
41 | CCCCC(C)C(=O)N1CCCN(C2=NS(=O)(=O)C(c3ccc(CC)cc3)=C2C)CC1 (stereo not drawn) | 1020
42 | CCCn1c(=O)sc2cc(S(=O)(=O)N3CCC(C(=O)Nc4cccc(C)n4)CC3)ccc21 | 844
43 | O=C(CN1C(=O)COc2ccc(C(=O)N3CCCC3)cc21)N1CCN(c2ccccn2)CC1 | 583
44 | Cc1c(Cl)cccc1-c1ccc(CNCC2CCCO2)o1 (stereo not drawn) | 734
45 | Cc1ccc2oc(N3CCN(C(=O)c4ccc(-c5noc(C6CC6)n5)cc4)CC3)nc2n1 | 670
46 | CCN1CCN(c2cc(C(=O)O)c3cc(NS(=O)(=O)c4cc(F)ccc4F)ccc3n2)CC1 | 594
47 | Cc1c(CNCc2cccnc2)c(C(=O)O)c(C)n1Cc1cccc(F)c1 | 618
48 | O=c1cc(-c2ccccc2)nc2n1CCN2Cc1ccccn1 | 658
49 | Cn1ncc2c3ccccc3n(CCCC(=O)NCCc3c[nH]c4ccccc34)c2c1=O | 815
50 | Cc1cnn(Cc2cc(C(=O)N3C[C@@H](CO)[C@H](N(C)C)C3)no2)c1 | 566
51 | CCN1CCN(C(=O)c2cn(-c3ccc(-c4nc(C(C)(C)C)no4)cn3)cn2)CC1 | 653
52 | COCCNC(=O)CC1CCN(C(=O)c2cc3cc(Cl)ccc3[nH]2)CC1 | 701
53 | CS(=O)(=O)Nc1ccc(C2(C(=O)NCc3cccs3)CCCCC2)cc1 | 851
54 | CCCN1CCCCc2cc(C(=O)NCC(F)F)sc21 | 932
55 | CCC(=O)N1CCC(C2CCN(S(=O)(=O)c3ccccc3)CC2)C1 (stereo not drawn) | 788
56 | O=C(Nc1cnc(-c2cccc(Cl)c2)nc1)C1CCC1 | 1020
57 | Cc1ccc(Cn2c(C(=O)NCCc3ccccc3)cc3sccc32)cc1 | 1180
58 | Cc1cc(N(CCCl)CCCl)ccc1/C=N/NC(=O)Cc1cc(=O)oc2cc(O)ccc12 | 862

Next, values leading:

Row | RP-LC retention time [s] | Compound
59 | 816 | Cc1ccc(Nc2c(-c3ccc(N(C)C)cc3)nc3cccc(C)n23)cc1
60 | 968 | COc1cc(-c2cc(CN(CC3CCCO3)C(=O)C3CCCCC3)no2)cc(OC)c1OC (stereo not drawn)
61 | 1070 | COc1ccc(-c2noc(Cc3nnc(-c4cccc(Cl)c4)o3)n2)cc1
62 | 1030 | COc1ccc(-c2nc(-c3cccc(-c4ccnn4C)c3)no2)c(OC)c1
63 | 714 | CCC(C)NC(=O)Cn1cccc(-c2nc(-c3ccc(OC)c(OC)c3)no2)c1=O (stereo not drawn)
64 | 1010 | COc1ccc(-c2c(C)nn3c(C)c(C(=O)OC(C)C)nnc23)cc1
65 | 766 | CCc1nc2cc(N3CCC(C(=O)Nc4ccc(OC)c(OC)c4)CC3)cnc2nc1CC
66 | 900 | Cc1cc(CNC(=O)C2(c3ccc(F)cc3)CC2)c(C)o1
67 | 634 | CCc1nccn1Cc1noc(-c2ccccc2)n1
68 | 744 | COc1ccc(-c2nc3ncccn3c2Nc2ccc(C)cc2)cc1
69 | 843 | Cc1nnc2ccc(-c3noc(-c4cccc5[nH]ccc45)n3)cn12
70 | 828 | COc1cc(-c2nnc(C)o2)ccc1C
71 | 658 | Cc1scc2nc(C(=O)Nc3ccccc3)nc(N(C)C)c12
72 | 741 | COc1ccc(-c2cc(C(=O)Nc3cc(C)cc(C)c3)nn2C2CCS(=O)(=O)C2)cc1 (stereo not drawn)
73 | 944 | COc1ccc(Cl)cc1NC(=O)CSc1ccc(-c2ccco2)nn1
74 | 1080 | CCCN1C(=O)COc2ccc(-c3csc(NC(=O)c4ccc(C)cc4)n3)cc21
75 | 734 | Cc1ccc(-c2cn3c(CC(=O)NCCc4ccc(Cl)cc4)csc3n2)cc1C
76 | 948 | Cc1nc(C2(C)CCN(S(=O)(=O)c3cc(F)ccc3C)CC2)no1
77 | 812 | Cc1cccc(NC(=O)Nc2nc(C)c(C(=O)NC3CCCC3)s2)c1
78 | 1110 | COCC(=O)Nc1ccc(-c2nc(-c3ccc(C)cc3C)co2)cc1
79 | 1190 | Cc1cccc(-c2nnc(-c3cccc(S(=O)(=O)N4CCCCCC4)c3)o2)c1
80 | 800 | CCC(C)OC(=O)C1=C(C)NC(=O)NC1c1ccccc1F (stereo not drawn)
81 | 820 | Cc1ccc(NC(=O)C2CCCN(c3nnc(C)c4c(C)n(-c5ccccc5)nc34)C2)cc1C (stereo not drawn)
82 | 605 | CCc1nc(-c2c(C)cc(C)nc2NC(=O)c2cc(C)cc(C)c2)no1
83 | 951 | COCCCNC(=O)c1ccc(-c2nc(CN3CCc4ccccc43)c(C)o2)cc1
84 | 737 | Cc1cc(C)c(S(=O)(=O)Nc2cc(-c3cn4ccccc4n3)ccc2C)cc1C
85 | 871 | COc1ccc(S(=O)(=O)N2CCC(c3nc(C(=O)N4CCCC4)c(C)o3)CC2)cc1
86 | 895 | COc1ccc(OC)c(NC(=O)N2CCC(n3c(C(F)(F)F)nc4cccnc43)CC2)c1
87 | 679 | CCCNC(=O)C1CCN(c2ccc(SCC(=O)Nc3ccc(C)c(F)c3)nn2)CC1
88 | 841 | Cc1cc(SCC(=O)Nc2nc(-c3ccccc3)cs2)nc(C)n1
